Data on six compounds can be found in ChEMBL document CHEMBL5375987, “Structural Fusion of Natural and Synthetic Ligand Features Boosts RXR Agonist Potency” (J Med Chem, 2023).

Structures are written as SMILES. ≈ marks a conversion by molar mass, not a printed value.

The target of data set [1] is T1, Retinoic acid receptor RXR-beta (Homo sapiens, UniProt P28702).
T1 sequence (P28702 whole entry): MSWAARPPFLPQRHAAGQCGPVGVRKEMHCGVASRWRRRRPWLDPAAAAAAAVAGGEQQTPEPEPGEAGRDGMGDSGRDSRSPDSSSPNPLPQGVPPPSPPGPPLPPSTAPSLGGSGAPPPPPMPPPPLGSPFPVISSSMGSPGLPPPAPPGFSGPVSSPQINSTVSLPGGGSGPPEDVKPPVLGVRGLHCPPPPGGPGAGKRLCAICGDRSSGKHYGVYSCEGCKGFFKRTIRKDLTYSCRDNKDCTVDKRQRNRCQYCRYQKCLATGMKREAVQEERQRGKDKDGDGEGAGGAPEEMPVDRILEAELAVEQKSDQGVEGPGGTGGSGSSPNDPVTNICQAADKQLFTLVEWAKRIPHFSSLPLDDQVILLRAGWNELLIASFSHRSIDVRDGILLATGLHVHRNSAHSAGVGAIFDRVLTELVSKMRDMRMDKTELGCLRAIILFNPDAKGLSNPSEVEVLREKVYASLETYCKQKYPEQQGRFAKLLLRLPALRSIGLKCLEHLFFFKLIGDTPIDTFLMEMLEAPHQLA
Nature of the data set: Agonist activity at full length human RXR beta expressed in HEK293T cells measured after 16 hrs by Dual-glo luciferase assay. It counts as cell-based.

Data set [2] concerns the target T2, Retinoic acid receptor RXR-alpha (Homo sapiens, UniProt P19793).
T2 sequence (P19793 whole entry): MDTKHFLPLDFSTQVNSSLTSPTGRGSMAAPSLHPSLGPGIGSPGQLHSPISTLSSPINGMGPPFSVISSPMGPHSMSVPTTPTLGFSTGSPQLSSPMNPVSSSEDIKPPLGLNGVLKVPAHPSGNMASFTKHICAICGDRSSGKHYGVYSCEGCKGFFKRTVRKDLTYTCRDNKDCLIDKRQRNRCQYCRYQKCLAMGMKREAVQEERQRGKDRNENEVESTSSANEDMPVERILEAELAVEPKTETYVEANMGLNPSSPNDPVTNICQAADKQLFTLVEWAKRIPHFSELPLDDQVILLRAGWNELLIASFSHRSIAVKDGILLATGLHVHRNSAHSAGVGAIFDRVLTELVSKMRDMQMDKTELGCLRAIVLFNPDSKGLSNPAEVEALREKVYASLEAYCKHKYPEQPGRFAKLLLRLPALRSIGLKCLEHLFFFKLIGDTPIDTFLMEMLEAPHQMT
Description: Agonist activity at full length human RXR alpha expressed in HEK293T cells measured after 16 hrs by Dual-glo luciferase assay

The target in data set [3] is T3, Retinoic acid receptor RXR-gamma (Homo sapiens, UniProt P48443).
T3 sequence (P48443 whole entry): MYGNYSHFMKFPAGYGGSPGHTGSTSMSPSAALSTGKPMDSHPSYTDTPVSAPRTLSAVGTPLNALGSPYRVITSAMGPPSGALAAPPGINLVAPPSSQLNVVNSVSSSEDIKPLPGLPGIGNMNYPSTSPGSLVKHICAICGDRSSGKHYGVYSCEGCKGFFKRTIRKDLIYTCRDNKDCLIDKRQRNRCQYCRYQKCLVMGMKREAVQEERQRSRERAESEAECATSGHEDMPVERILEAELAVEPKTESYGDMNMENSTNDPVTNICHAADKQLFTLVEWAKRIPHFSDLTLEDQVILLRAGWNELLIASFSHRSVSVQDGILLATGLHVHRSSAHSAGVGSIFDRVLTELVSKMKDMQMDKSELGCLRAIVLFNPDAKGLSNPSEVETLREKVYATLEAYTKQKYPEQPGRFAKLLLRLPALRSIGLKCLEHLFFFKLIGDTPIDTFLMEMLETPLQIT
Nature of the data set: Agonist activity at full length human RXR gamma expressed in HEK293T cells measured after 16 hrs by Dual-glo luciferase assay. It counts as cell-based.

Data set [4] addresses T4, Nuclear receptor subfamily 1 group I member 3 (Homo sapiens, UniProt Q14994).
T4 sequence (Q14994 whole entry): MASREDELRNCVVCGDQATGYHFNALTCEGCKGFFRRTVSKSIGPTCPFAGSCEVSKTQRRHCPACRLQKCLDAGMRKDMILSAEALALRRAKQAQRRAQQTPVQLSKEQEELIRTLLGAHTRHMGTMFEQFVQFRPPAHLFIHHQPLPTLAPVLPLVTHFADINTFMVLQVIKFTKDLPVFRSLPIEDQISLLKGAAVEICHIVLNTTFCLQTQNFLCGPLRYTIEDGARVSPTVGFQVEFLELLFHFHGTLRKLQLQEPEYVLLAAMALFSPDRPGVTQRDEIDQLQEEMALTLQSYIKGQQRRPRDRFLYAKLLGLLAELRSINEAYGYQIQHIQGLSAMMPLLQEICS
Nature of the data set: Inverse agonist activity at NR1I3 (unknown origin) at 1 uM.

The next data set has as its system COS-7. Briefly: Cytotoxicity against green monkey COS-7 cells assessed as inhibition of cell growth at upto 30 uM measured after 24 hrs CCK-8 method. It counts as toxicity, cell-based. Conditions: chlorocebus aethiops, cos-7, 24 h; call rule not given here.
A short description of data set [5]: Microsomal stability in Sprague-Dawley rat liver microsomes assessed as compound remaining at 10 uM measured auto 60 mins in presence of NADPH by HPLC-UV method. It counts as ADME, Microsome. Conditions: read-out: Stability. For orientation: Liver microsomes are a subcellular fraction often used to study metabolism.
Data set [6] is described as follows: Microsomal stability in Sprague-Dawley rat liver microsomes assessed as half life at 10 uM in presence of NADPH by HPLC-UV method. It is filed as ADME, Microsome.
In data set [7] the target is T4, Nuclear receptor subfamily 1 group I member 3. Briefly: Agonist activity at NR1I3 (unknown origin) at 1 uM.
Data set [8] in a line: Thermodynamic aqueous solubility of compound at 24 degreeC measured after 24 hrs by SpectraMax M5e plate reader analysis. It counts as physicochemical. The following applies: aqueous medium, read-out: Therm_solubility.
Data set [9] deals with T4, Nuclear receptor subfamily 1 group I member 3. Nature of the data set: Antagonist activity at NR1I3 (unknown origin) at 1 uM.

As for `C/C(C(=O)O)=C(/C)c1nc(-c2ccccc2)c(-c2ccccc2)o1`, the EC50 (commonly the concentration needed to bring the measured effect to its halfway point) in data set [1] was 1.9 µM.

On to `C/C(=C\C(=O)O)c1nc(-c2ccccc2)c(-c2ccccc2)o1`, for which, in data set [1], the EC50 is 7.4 µM.

With `O=C(O)/C=C/c1nc(-c2ccccc2)c(-c2ccccc2)o1`, the results for the EC50 in data set [1] and in data set [2] were 13.1 µM and 13 µM, respectively.

With `O=C(O)/C=C/c1nc(-c2ccccc2)c(-c2cc(C(F)(F)F)cc(C(F)(F)F)c2)o1`, it took 0.057 µM to reach a half-maximal effect in data set [3] (EC50).

For the compound `O=C(O)[C@@H]1C[C@H]1c1nc(-c2ccccc2)c(-c2cc(C(F)(F)F)cc(C(F)(F)F)c2)o1` (racemic), the Activity result in [4] is “Not Active”; with COS-7 it was “Non-Toxic”; in data set [7], “Not Active”; in [9], “Not Active”. Also, the remaining at 1 h, 10 µM in [5] was determined as 79%. Further, the half-life – broadly, the time in which the quantity being followed falls by half – at 10 µM in data set [6] is > 2 h. In addition, the solubility thermodynamic at 24 h in data set [8] is 18.3 µM (≈ 8.08 µg/mL).

Turning to `OC[C@@H]1C[C@H]1c1nc(-c2ccccc2)c(-c2cc(C(F)(F)F)cc(C(F)(F)F)c2)o1` (racemic), the solubility thermodynamic at 24 h in data set [8] amounted to 5.8 µM (≈ 2.48 µg/mL).
